Legend:
[1] = target: ALK tyrosine kinase receptor (Homo sapiens, UniProt Q9UM73); assay: Selectivity interaction (KinomeScan (DiscoverX)) EUB0000666a ALK; details: at 10 µM
[2] = target: Tyrosine-protein kinase Yes (Homo sapiens) (UniProt P07947); assay: Selectivity interaction (KinomeScan (DiscoverX)) EUB0000607a YES1; details: at 10 µM
[3] = target: TGF-beta receptor type-2 (Homo sapiens) (UniProt P37173); assay: Selectivity interaction (KinomeScan (DiscoverX)) EUB0001049a TGFBR2; details: at 1 µM
[4] = target: Tyrosine-protein kinase receptor UFO (Homo sapiens) (UniProt P30530); assay: Selectivity interaction (Ambit KINOMEscan and KiNATiv profiling in Jurkat cells) EUB0000090b AXL; format: cell-based; details: at 1 µM
Chain of Tyrosine-protein kinase receptor UFO (Homo sapiens) (P30530 whole entry): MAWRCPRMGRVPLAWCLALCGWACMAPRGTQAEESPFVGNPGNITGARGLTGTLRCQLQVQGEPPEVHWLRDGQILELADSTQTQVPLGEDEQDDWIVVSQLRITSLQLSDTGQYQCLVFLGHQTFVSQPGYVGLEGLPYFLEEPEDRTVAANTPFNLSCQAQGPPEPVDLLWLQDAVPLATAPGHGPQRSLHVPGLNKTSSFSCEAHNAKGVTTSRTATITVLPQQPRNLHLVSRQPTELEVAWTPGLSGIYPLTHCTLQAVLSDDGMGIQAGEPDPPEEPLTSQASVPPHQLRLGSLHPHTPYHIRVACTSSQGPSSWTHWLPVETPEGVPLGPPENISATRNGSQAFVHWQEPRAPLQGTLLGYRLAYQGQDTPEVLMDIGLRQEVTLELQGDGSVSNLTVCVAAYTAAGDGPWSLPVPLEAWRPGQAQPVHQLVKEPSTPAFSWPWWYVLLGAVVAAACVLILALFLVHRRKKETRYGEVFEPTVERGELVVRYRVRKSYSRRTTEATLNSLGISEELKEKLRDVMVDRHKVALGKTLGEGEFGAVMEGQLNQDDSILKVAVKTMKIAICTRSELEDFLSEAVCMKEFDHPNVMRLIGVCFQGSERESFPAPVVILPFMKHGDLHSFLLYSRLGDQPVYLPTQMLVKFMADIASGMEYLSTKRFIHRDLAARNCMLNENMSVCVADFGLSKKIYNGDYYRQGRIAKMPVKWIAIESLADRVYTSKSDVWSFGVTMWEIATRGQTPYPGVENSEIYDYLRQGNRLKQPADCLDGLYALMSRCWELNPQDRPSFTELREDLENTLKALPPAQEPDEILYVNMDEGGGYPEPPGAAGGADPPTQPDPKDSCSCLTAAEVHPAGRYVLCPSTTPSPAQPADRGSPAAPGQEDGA

[5] = target: T1, Serine/threonine-protein kinase ULK3 (Homo sapiens) (UniProt Q6PHR2); assay: Selectivity interaction (KinomeScan (DiscoverX)) EUB0000045b ULK3
T1 sequence (whole entry): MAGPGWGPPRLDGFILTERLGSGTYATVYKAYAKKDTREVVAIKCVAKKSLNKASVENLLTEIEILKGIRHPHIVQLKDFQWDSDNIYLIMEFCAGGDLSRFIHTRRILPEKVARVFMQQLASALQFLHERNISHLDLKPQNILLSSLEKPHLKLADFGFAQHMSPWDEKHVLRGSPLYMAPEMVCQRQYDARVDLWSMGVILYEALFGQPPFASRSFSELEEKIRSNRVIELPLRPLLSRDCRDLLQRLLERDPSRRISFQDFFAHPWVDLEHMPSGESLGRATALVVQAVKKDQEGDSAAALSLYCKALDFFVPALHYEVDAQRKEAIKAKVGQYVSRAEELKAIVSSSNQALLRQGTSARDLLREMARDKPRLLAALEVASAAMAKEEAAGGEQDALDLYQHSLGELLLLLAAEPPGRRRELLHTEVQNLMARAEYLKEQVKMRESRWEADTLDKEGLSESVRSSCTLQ

[6] = target: Tyrosine-protein kinase Fyn (Homo sapiens) (UniProt P06241); assay: Selectivity interaction (KinomeScan (DiscoverX)) EUB0000229b FYN; details: at 10 µM
[7] = target: Ribosomal protein S6 kinase alpha-5 (Homo sapiens) (UniProt O75582); assay: Selectivity interaction (KinomeScan (DiscoverX)) EUB0000092b RPS6KA5; details: at 10 µM
Chain of Ribosomal protein S6 kinase alpha-5 (Homo sapiens) (O75582 whole entry, looked up): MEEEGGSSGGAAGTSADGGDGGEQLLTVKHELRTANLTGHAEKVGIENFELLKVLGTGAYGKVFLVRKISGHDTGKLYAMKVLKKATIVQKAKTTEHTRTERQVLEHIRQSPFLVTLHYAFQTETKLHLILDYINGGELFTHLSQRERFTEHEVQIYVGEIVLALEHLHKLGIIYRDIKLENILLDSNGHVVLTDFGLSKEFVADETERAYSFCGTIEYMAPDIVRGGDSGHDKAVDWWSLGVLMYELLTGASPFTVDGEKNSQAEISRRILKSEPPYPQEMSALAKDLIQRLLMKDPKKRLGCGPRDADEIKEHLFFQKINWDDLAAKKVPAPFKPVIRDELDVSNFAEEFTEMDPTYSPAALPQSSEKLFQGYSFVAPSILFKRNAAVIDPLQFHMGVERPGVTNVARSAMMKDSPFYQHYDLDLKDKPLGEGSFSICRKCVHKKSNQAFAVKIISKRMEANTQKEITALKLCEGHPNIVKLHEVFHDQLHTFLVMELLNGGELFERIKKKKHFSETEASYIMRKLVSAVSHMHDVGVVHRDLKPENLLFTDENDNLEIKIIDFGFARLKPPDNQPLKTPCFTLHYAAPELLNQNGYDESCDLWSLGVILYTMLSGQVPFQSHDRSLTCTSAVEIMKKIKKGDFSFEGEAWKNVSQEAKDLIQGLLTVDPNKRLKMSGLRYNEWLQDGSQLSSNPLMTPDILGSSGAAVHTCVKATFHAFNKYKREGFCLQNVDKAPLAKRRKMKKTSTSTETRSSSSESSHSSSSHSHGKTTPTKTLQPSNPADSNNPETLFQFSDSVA

[8] = target: Tyrosine-protein kinase BTK (Homo sapiens, UniProt Q06187); details: at 10 µM
[9] = target: T2, Serine/threonine-protein kinase TNNI3K (Homo sapiens) (UniProt Q59H18); details: at 10 µM
T2 sequence (whole entry): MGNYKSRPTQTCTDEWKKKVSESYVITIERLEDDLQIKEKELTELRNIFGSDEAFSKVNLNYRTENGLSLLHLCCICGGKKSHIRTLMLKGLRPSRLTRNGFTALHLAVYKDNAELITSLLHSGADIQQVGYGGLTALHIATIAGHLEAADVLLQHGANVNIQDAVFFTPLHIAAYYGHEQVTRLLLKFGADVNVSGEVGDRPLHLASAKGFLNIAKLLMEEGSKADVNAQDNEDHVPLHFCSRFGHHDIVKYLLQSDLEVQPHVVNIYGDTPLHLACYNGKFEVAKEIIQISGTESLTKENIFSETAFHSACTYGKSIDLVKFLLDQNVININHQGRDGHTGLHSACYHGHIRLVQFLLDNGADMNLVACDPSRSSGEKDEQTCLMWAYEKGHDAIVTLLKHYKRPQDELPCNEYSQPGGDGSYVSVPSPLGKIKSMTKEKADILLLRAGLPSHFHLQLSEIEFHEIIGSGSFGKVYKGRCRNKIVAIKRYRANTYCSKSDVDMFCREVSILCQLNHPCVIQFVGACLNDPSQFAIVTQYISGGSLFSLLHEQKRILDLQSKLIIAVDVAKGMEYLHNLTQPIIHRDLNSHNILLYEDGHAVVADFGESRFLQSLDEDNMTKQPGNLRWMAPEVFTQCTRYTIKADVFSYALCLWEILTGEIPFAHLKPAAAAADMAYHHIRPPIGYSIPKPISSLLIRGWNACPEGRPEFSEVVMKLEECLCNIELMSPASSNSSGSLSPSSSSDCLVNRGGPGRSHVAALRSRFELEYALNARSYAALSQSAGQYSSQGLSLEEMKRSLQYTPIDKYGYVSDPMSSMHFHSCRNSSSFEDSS

[10] = target: Cyclin-dependent kinase 5 (Homo sapiens, UniProt Q00535); details: at 10 µM
Chain of Cyclin-dependent kinase 5 (Q00535 whole entry, looked up): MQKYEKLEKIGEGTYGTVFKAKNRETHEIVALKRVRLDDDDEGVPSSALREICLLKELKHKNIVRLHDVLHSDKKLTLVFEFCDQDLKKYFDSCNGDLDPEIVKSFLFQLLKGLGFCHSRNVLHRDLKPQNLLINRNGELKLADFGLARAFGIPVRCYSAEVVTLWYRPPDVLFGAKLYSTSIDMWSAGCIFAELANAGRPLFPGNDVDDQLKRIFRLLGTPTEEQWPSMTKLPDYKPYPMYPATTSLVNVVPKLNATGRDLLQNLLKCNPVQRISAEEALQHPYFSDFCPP

[11] = target: Serine/threonine-protein kinase Chk2 (Homo sapiens) (UniProt O96017); details: at 10 µM
Chain of Serine/threonine-protein kinase Chk2 (Homo sapiens) (O96017 whole entry): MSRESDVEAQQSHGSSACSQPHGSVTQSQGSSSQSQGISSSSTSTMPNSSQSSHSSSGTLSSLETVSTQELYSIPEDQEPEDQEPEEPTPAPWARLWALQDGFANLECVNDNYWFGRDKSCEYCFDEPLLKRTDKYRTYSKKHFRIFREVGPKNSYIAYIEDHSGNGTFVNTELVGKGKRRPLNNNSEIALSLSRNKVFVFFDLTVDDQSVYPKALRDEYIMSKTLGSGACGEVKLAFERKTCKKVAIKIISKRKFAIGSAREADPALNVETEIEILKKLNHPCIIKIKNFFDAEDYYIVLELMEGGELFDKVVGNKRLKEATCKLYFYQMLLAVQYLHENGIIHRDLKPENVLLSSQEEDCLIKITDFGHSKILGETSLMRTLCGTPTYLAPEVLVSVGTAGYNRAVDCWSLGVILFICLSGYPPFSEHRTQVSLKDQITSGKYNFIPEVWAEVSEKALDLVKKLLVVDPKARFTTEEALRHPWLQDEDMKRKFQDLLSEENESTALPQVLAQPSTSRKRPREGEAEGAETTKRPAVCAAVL

[12] = target: Platelet-derived growth factor receptor beta (Homo sapiens, UniProt P09619); assay: Selectivity interaction (KinomeScan (DiscoverX)) EUB0001619a PDGFRB; details: at 1 µM

Chain of ALK tyrosine kinase receptor (Q9UM73 19-1620 limits assumed): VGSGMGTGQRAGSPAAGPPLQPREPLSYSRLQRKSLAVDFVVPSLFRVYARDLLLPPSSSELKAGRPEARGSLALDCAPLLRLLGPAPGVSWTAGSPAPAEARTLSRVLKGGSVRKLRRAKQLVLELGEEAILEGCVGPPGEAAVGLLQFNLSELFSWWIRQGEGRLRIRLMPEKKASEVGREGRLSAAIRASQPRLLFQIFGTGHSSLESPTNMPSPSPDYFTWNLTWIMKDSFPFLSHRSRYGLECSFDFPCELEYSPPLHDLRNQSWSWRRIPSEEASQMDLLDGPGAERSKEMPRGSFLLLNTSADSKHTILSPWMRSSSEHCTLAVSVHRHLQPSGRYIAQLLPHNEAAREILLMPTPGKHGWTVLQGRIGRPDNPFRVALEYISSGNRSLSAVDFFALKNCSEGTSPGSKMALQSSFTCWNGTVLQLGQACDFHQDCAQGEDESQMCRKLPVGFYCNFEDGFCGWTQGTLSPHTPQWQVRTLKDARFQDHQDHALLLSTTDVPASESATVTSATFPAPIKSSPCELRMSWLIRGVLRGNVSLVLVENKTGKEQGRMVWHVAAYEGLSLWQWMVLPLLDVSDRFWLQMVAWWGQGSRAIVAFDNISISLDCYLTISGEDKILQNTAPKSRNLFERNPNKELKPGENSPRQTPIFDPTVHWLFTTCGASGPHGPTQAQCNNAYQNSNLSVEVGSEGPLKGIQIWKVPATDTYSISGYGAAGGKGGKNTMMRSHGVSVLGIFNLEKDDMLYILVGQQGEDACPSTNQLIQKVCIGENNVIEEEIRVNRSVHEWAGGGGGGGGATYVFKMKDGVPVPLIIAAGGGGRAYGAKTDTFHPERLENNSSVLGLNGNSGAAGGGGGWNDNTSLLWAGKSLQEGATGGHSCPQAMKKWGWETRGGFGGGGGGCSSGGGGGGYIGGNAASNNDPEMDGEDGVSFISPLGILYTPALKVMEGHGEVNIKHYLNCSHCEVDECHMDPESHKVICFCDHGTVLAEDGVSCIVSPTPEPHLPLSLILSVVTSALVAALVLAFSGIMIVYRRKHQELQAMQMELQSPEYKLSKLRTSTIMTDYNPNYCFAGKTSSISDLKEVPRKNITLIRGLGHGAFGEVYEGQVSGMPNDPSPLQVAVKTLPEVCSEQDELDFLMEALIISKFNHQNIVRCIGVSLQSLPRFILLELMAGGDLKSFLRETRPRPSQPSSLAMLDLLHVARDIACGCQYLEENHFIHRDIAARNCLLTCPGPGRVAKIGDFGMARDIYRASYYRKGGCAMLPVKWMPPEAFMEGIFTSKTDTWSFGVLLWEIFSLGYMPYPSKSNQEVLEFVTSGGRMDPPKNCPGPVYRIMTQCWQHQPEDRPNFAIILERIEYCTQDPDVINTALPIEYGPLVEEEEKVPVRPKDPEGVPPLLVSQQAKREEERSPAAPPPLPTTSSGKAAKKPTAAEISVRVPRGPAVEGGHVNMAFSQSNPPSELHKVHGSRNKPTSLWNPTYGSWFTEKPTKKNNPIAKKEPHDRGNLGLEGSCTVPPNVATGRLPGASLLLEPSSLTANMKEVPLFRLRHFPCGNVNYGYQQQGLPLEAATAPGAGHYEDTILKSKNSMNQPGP
Chain of Tyrosine-protein kinase Yes (Homo sapiens) (P07947 2-543 limits assumed): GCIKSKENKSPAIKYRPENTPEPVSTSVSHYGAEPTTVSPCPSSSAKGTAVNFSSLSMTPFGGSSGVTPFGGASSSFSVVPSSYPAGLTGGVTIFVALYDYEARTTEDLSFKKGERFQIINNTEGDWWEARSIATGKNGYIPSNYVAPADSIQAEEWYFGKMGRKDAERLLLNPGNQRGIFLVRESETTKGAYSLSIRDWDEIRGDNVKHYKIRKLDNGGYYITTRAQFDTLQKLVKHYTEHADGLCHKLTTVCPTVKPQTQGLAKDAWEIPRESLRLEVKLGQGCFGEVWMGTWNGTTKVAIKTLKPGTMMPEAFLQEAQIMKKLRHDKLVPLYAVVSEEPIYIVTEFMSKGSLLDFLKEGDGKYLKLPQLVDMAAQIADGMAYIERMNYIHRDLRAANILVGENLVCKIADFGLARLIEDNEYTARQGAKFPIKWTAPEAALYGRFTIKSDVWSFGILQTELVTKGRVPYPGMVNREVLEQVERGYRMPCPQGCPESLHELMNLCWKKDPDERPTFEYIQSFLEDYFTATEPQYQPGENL

O=C(NOC[C@H](O)CO)c1ccc(F)c(F)c1Nc1ccc(I)cc1F
% of control [1]: 100%

CNC(=O)Nc1ccc(-c2nc(N3CC4CCC(C3)O4)c3cnn(C4CCC5(CC4)OCCO5)c3n2)cc1
% of control [2]: 97%

COc1cc(Nc2nc(C)cc(-c3cnn4nc(OC)ccc34)n2)cc(C(F)(F)F)c1
% of control [3]: 100%

CN(C)C/C=C/C(=O)Nc1ccc(C(=O)N2CCCC(Nc3ncc(Cl)c(-c4c[nH]c5ccccc45)n3)C2)cc1 (stereo not drawn)
% of control [4]: 92%

C=CC(=O)Nc1cc(-n2c(=O)ccc3cnc4ccc(-c5ccc(NS(C)(=O)=O)cc5)cc4c32)ccc1C
% of control ([5]; at 1 µM): 80%
% of control ([5]; at 10 µM): 100%

COc1cc(N(C)c2ccnc3ccc(C(F)(F)F)cc23)cc(OC)c1OC
% binding [6]: 100%

CCC(=O)N1CCN(c2ccc(-n3c(=O)ccc4cnc5ccc(-c6cnc7ccccc7c6)cc5c43)cc2C(F)(F)F)CC1
% of control [7]: 100%

Cc1cc([C@@H](C)Nc2ccccc2C(=O)O)c2nc(N3CCOCC3)cc(=O)n2c1 [AZD-6482]
% of control [8]: 97%
% of control [9]: 88%
% of control [10]: 100%
% of control [11]: 100%

N#Cc1cccc(-c2c[nH]c3ncnc(N4CCOCC4)c23)c1
% of control [12]: 90%

— ChEMBL document CHEMBL5465560, “Selectivity Literature for EUbOPEN Chemogenomic Library” (2024)
